US7737185B2 (Repros Therapeutics Inc., priority 2001, dated 2010)

Experiments:
serum cholesterol = test: Serum cholesterol in male baboons; format: in vivo; details: 1.5 mg/kg for 12 days
Excerpt: (§1) The samples analyzed were sera taken on the day of first treatment before being given test article (day 0), after 12 days of treatment (day 12) and 7 days after the last treatment (end or wash-out).

total serum testosterone = test: Serum testosterone in male baboons given Clomid, Enclomid or Zuclomid; format: in vivo; details: for Effect on total serum testosterone: 1.5 mg/kg for 12 days, male baboons
Excerpt: as §1

FSH, LH, testosterone = details: cited from earlier work
[1] = following a single dose; cited from earlier work
triglycerides = test: Placebo controlled challenge study Androxal vs Androgel: triglycerides; format: in vivo, human; details: after two weeks of therapy, non-dose dependent; placebo 5.9% reduction
Description: (§2) Androgel® (Solvay Pharmaceuticals, Inc.) consists of a cream that administers exogenous testosterone in a transdermal matrix.
(§3) The study enrolled 62 hypogonadal men with testosterone levels less than 300 ng/dl (normal 298-1034 ng/dl) that were randomized into 6 different arms, three doses of Androxal™ (12.5 mg, 25 mg, and 50 mg), placebo, and both high and low doses of Androgel®. Half of the men in each of the Androxal™ and placebo arms were randomized into cohorts that underwent in-clinic sessions on days 1 and 14 to determine pharmacokinetic parameters for Androxal™ as well as cyclical changes in testosterone. The placebo and Androxal™ doses were administered in a double blind fashion. The Androgel® cream was administered in an open label fashion. Half of the Androgel® patients underwent in-clinic sessions similar to the other patients in the study. Following the two week drug exposure patients were followed for an additional seven to ten days to determine the status of their testosterone levels.

serum LH, FSH, PRL = test: Serum LH, FSH and prolactin in male baboons; format: in vivo; details: during the study
Excerpt: as §1

serum LH, FSH = test: Placebo controlled challenge study Androxal vs Androgel: serum LH and FSH; format: in vivo, human
Description: as §2, §3

total testosterone = test: Placebo controlled challenge study Androxal vs Androgel: total testosterone; format: in vivo, human; details: for Mean increase in testosterone from baseline: hypogonadal men, two weeks
Description: as §2, §3

[2] = Placebo controlled challenge study Androxal vs Androgel: side effects; format: in vivo, human; details: hypogonadal men, two week exposure
Description: as §2, §3

With `CCN(CC)CCOc1ccc(C(=C(Cl)c2ccccc2)c2ccccc2)cc1` [Clomid, clomiphene] as the molecule, how does the “Change in serum cholesterol levels” value (serum cholesterol) read?
The value was “slight increase”.

What about the “Variability of total testosterone levels (coefficients of variation)” value (total serum testosterone; day 6 and later, compared to animals receiving Enclomid) of the same molecule?
The value was “more variable total testosterone levels”.

What about the “FSH, LH after treatment” value (FSH, LH, testosterone; both young and old men) of the same molecule?
The value was “increases in FSH, LH”.

What about the “Free and total testosterone after treatment” value (FSH, LH, testosterone; men, young men showing significant increases) of the same molecule?
The value was “increases in free and total testosterone”.

Which Hematocrit (male baboons) does the source give for `CCN(CC)CCOc1ccc(/C(=C(/Cl)c2ccccc2)c2ccccc2)cc1` [Zuclomid, cis-clomiphene, reference compound] here?
The Hematocrit was “demonstrated a statistical difference”.

And the “Red blood cell population” value (male baboons)?
Its value is “substantive effects”.

What about the “Increase in serum cholesterol levels” value (serum cholesterol) of the same molecule?
Its value is 22%.

What about the “Effect on total serum testosterone” value (total serum testosterone) of the same molecule?
Its value is “did not raise total serum testosterone to any extent”.

And the Residual blood levels [1]?
The Residual blood levels was “in excess of one month”.

What does the source list for `CCN(CC)CCOc1ccc(/C(=C(\Cl)c2ccccc2)c2ccccc2)cc1` [Enclomid, trans-clomiphene]?
Reduction in triglycerides (average decrease) (triglycerides): 19.1%; Platelet count (12-day treatment): lowering of the platelet count; Eosinophil counts (male baboons): raising the counts; Lymphocytes, count and per cent (male baboons): increase; Red blood cell population (male baboons): substantive effects; Per cent of granulocytes in the blood (very strong after the 7-day washout period): strong effect; Serum prolactin (PRL) (serum LH, FSH, PRL): decrease in serum prolactin; Serum LH in the follow-up period (serum LH, FSH; 7-10 days after cessation of daily treatment): remained high; Serum FSH in the follow-up period (serum LH, FSH; after cessation of treatment): remains high; Serum levels of LH during treatment (serum LH, FSH; hypogonadal male subjects (FIG. 5)): statistically significant increase; Serum levels of FSH during treatment (serum LH, FSH; hypogonadal male subjects (FIG. 6)): statistically significant increase; Coefficient of variation (CV) of mean total testosterone (total testosterone; 50 mg dose, after 15 days): 29%; Mean total testosterone (total testosterone; 50 mg dose, after 15 days): 589 ± 172 ng/dL; Mean increase in testosterone from baseline (total testosterone; high dose (50 mg) oral): 294 ng/dL; Mean increase in testosterone from baseline (total testosterone; low dose (12.5 mg) oral): 169 ng/dL; Mean increase in testosterone from baseline (total testosterone; mid dose (25 mg) oral): 247 ng/dL; Decrease in serum cholesterol levels (serum cholesterol): 8%; Effect on total serum testosterone (total serum testosterone): significant increases in total serum testosterone; Change in total serum testosterone after cessation of treatment (total serum testosterone; between day 12 and day 18 (washout)): significant drop; Side effects different than placebo [2]: no side effects noted
